Data: patent US20240351959A1, “USE OF ETHYNYLPYRIDINE COMPOUNDS AS NITRIFICATION INHIBITORS” (BASF SE, priority 2021, published 2024)

Columns and labels:
nitrification [1] = test: % NH4-N recovery from fertilized NH4-N in soil Limburgerhof; details: 20° C.
Description: The compounds according to the invention have been further tested in terms of their % NH4—N recovery from fertilized NH4—N.
The compounds according to general formula I were tested as follows in terms of the inhibition of nitrification:
100 g soil (soil Limburgerhof with pH(CaCl2) 6.8; 73% sand, 23% silt, 4% clay, which is classified according to FAO as a sandy loam) is filled into 500 ml plastic bottles and is moistened to 50% water holding capacity. The soil is incubated at 20° C. for two weeks prior to the experiments to activate the microbial biomass. 1 ml test solution, containing the compounds of formula I or the comparative compounds in the appropriate concentration (0.1, 0.3 or 1% (w/w) of fertilized NH4—N), and 10 mg nitrogen in the form of ammoniumsulfate-N(NH4—N) is added to the soil and everything mixed well. Unfertilized controls received 1 ml pure water. Bottles are capped but loosely to allow air exchange. The bottles are then incubated at 20° C. for 14 days and 28 days.
(§1) For analysis, 300 ml of a 1% K2SO4-solution is added to the bottle containing the soil and shaken for 2 hours in a horizontal shaker at 150 rpm. Then the whole solution is filtered through a filter (Macherey-Nagel Filter MN 807%). Ammonium content is then analyzed in the filtrate using an autoanalyzer. Ammonium was quantified via an indophenol blue dye at 660 nm.
The nitrification inhibition is expressed as % of NH4—N recovery from fertilized NH4—N(100%) after subtraction of unfertilized control soil. The number of replicates is 4.
For comparison of the % NH4—N recovery of the compound of the invention, i.e. Example 4, with the comparative compounds as shown above from different trials, the standard deviation of a common treatment of all trials with DMPP (3,4-dimethylpyrazole phosphate) was calculated. As the standard deviation was low, data from different trials were pooled together to compare the average % NH4—N recovery for the compound of the invention and the comparative compounds as shown above.

nitrification [2] = test: inhibition of nitrification in soil incubation (NI); details: soil incubated at 20° C., 14 days; for NI @ 0.3%: compound at 0.3% of nitrogen N; for NI @ 1%: compound at 1% of nitrogen N; for NI @ 0.1%: compound at 0.1% of nitrogen N
Description: The compounds of the invention have been tested as follows in terms of the inhibition of nitrification:
100 g soil is filled into 500 ml plastic bottles (e.g. soil sampled from the field) and is moistened to 50% water holding capacity. The soil is incubated at 20° C. for two weeks to activate the microbial biomass. 1 ml test solution, containing the compound of formula I in the appropriate concentration (usually 0.1, 0.3 or 1% of nitrogen N), or DMSO and 10 mg nitrogen in the form of ammoniumsulfate-N is added to the soil and everything mixed well. Bottles are capped but loosely to allow air exchange. The bottles are then incubated at 20° C. for 0 and 14 days.
as §1, with “Ammonium and nitrate” for “Ammonium”, “in” for “using”, “autoanalyzer” for “autoanalyzer. Ammonium was quantified via an indophenol blue dye”, “550 nm (Merck, AA11).” for “660 nm.”
The inhibition (NI® a specified concentration) is calculated as follows: […]

N2O emission = test: reduction of N2O emission, potted corn plants in greenhouse soil; set-up: species or system Zea mais; details: 100 ppm ammonium sulfate, cumulated emissions over two weeks, relative to untreated but fertilized control
Description: Example 2 was additionally tested in terms of the reduction of N20 emission Corn seeds (Zea mais, cultivar “Shorty”) were planted 1 seed/pot in 8 cm pots in standard greenhouse soil (mixture of peat, loam and sand) and grown in a greenhouse at 20° C. and 60% humidity. Plants were grown for ten days in a completely randomized set-up. On day 6, plants were watered but not fertilized to 50% water holding capacity then left to dry out. On day ten, the plants were separated out and each pot set onto a plant saucer designed with an inner compartment for the pot and an outer ring that is filled with water. At time 0 water with or without 100 ppm ammonium sulfate and with or without the given concentration of nitrification inhibitor (1% and 0.3%) was applied to the plant such that the water holding capacity of the soil was around 50-60%. Then a gas sampling chamber was placed over the plant saucer such that the rim fit into the ring filled with water to create a gas-tight chamber and 20 cc air from the chamber were drawn into a syringe and immediately emptied in to a Vacutainer (Labco, 12 ml volume). […] Samples were analyzed in a Shimadzu 2014 GC equipped with an ECD system. Data was calculated as the cumulated emissions over the measurement period and the % reduction of N20 emissions relative to the untreated but fertilized control was calculated.

Compound | % NH4—N recovery after 14 days (nitrification [1]; 0.1 wt.-% relative to NH4—N) [%] | % NH4—N recovery after 14 days (nitrification [1]; 0.3 wt.-% relative to NH4—N) [%] | % NH4—N recovery after 28 days (nitrification [1]; 0.3 wt.-% relative to NH4—N) [%] | % NH4—N recovery after 14 days (nitrification [1]; 1 wt.-% relative to NH4—N) [%] | % NH4—N recovery after 28 days (nitrification [1]; 1 wt.-% relative to NH4—N) [%] | NI @ 0.3% (nitrification [2]) [%] | NI @ 1% (nitrification [2]) [%] | NI @ 0.1% (nitrification [2]) [%] | % reduction of N2O relative to control @ 0.3% (N2O emission; nitrification inhibitor 0.3%) [%] | % reduction of N2O relative to control @ 1% (N2O emission; nitrification inhibitor 1%) [%]
C[Si](C)(C)C#Cc1ccccn1 [Comparative Example A] | 46.50 | 60.30 | 51.2 | 67.80 | 68.1 |  |  |  |  | 
C[Si](C)(C)C#Cc1ccc(Cl)cn1 [Comparative Example B] | 20.94 | 44.40 | 11.1 | 59.90 | 61.0 |  |  |  |  | 
Clc1cccc(C(Cl)(Cl)Cl)n1 [Comparative Example, reference compound] |  |  |  |  |  | 35 | 54 |  |  | 
C#Cc1cc(Cl)ccn1 [Example 1] |  |  |  |  |  |  | 83 | 46 |  | 
C#Cc1ccc(Cl)cn1 [Example 2] |  |  |  |  |  |  | 76 | 74 | 91 | 97
C#Cc1ccc(Cl)nc1 [Example 3] |  |  |  |  |  | 84 | 94 | 68 |  | 
C#Cc1ccc(Cl)cn1 [Example 4] | 74.00 | 68.50 | 59.0 | 72.00 | 56.0 |  |  |  |  | 
